Assay results: patent publication US20250144067A1, “PERSONALIZED STARVATION THERAPY FOR CANCER” (Faeth Therapeutics, Inc., priority 2021, published 2025)
Where a name gives a salt, the structure may show the parent alone. Read-outs that look alike come from different tables or passages of the source.

Key:
[1] = system: NCI-H292 lung cancer cells; test: FDA drug screening, complete media vs cholesterol-free media without statin (TABLE 1); type: cell-based, human
[2] = system: NCI-H292 lung cancer cells; test: FDA drug screening, complete media vs cholesterol-free media with simvastatin (TABLE 2); type: cell-based, human
[3] = Complete minus Cholesterol-free, greater than 0 enhanced anti-cancer activity, about 0 neutral, below 0 antagonist
[4] = NCI-H292 cells, FDA drug library screen, cholesterol-free media without statin
[5] = NCI-H292 cells, FDA drug library screen, complete media
[6] = NCI-H292 cells, FDA drug library screen, cholesterol-free media with simvastatin 0.04 μM
[7] = complete media minus cholesterol-free media + simvastatin, >0 enhanced anti-cancer activity, about 0 neutral, <0 antagonist
[8] = NCI-H292 cells, cholesterol-free media without statin
[9] = complete vs cholesterol-free media, greater than 0 enhanced anti-cancer activity, about 0 neutral, below 0 antagonists
[10] = NCI-H292 cells, FDA library drug in cholesterol-free media with simvastatin 0.04 μM
[11] = NCI-H292 cells, FDA library drug in complete media
[12] = complete media vs cholesterol-free media + simvastatin (0.04 μM), >0 enhanced anti-cancer activity, about 0 neutral, <0 antagonist
[13] = Complete minus Cholesterol-free, […]
[14] = NCI-H292 cells in cholesterol-free media without statin
[15] = NCI-H292 cells in complete media
[16] = complete media vs cholesterol-free media + simvastatin (0.04 μM), […]
[17] = NCI-H292 cells, cholesterol-free media without statin, FDA drug library screen
[18] = NCI-H292 cells, complete media, FDA drug library screen
[19] = NCI-H292 cells, drug in cholesterol-free media with simvastatin 0.04 μM
[20] = NCI-H292 cells, drug in complete media
[21] = Complete minus Cholesterol-free, >0 enhanced anti-cancer activity, about 0 neutral, <0 antagonist
[22] = Complete minus Cholesterol-free, greater than 0 enhanced anti-cancer activity, about 0 neutral, below 0 antagonists
[23] = NCI-H292 cells, cholesterol-free media with simvastatin 0.04 μM, FDA drug library screen (TABLE 2)
[24] = NCI-H292 cells, complete media, FDA drug library screen (TABLE 2)
[25] = complete media minus cholesterol-free media + simvastatin (0.04 μM), >0 enhanced anti-cancer activity, about 0 neutral, <0 antagonist

Compound: Butoconazole (nitrate)
- Difference [1, 3]: −0.19
- Cholesterol-free [1, 4]: 0.9845
- Complete [1, 5]: 0.7977
- Cholesterol-free media + simvastatin (0.04 μM) [2, 6]: 0.1838
- Complete Media [2, 5]: 0.9232
- Difference [2, 7]: 0.74

Compound: CN1CCC[C@@H]1Cc1c[nH]c2ccc(CCS(=O)(=O)c3ccccc3)cc12 [Eletriptan (hydrobromide)]
- Cholesterol-free [1, 8]: 1.406
- Complete ([1]; NCI-H292 cells, complete media): 1.08
- Difference [1, 9]: −0.33
- Cholesterol-free media + simvastatin (0.04 μM) [2, 10]: 1.33
- Complete Media [2, 11]: 0.9128
- Difference [2, 12]: −0.42

Compound: Phillyrin
- Difference [1, 13]: −0.77
- Cholesterol-free [1, 14]: 1.584
- Complete [1, 15]: 0.8182
- Cholesterol-free media + simvastatin (0.04 μM) [2, 6]: 1.405
- Complete Media [2, 5]: 1.262
- Difference [2, 16]: −0.14

Compound: O=C(/C=C/c1cccc(S(=O)(=O)Nc2ccccc2)c1)NO [Belinostat]
- Cholesterol-free [1, 17]: 0.07179
- Complete [1, 18]: 0.1605
- Difference ([1]; complete vs cholesterol-free media, >0 enhanced anti-cancer activity, about 0 neutral, <0 antagonist): 0.09
- Cholesterol-free media + simvastatin (0.04 μM) [2, 6]: 0.2409
- Complete Media [2, 5]: 0.1471
- Difference [2, 12]: −0.09

Compound: NC(=O)OC[C@H](N)Cc1ccccc1 [Solriamfetol]
- Difference [1, 13]: −0.04
- Cholesterol-free [1, 17]: 1.006
- Complete [1, 18]: 0.9654
- Cholesterol-free media + simvastatin (0.04 μM) [2, 10]: 1.23
- Complete Media [2, 11]: 0.8852
- Difference [2, 16]: −0.34

Compound: Nc1ncnc2c1ncn2[C@@H]1O[C@H](CO)[C@@H](O)[C@@H]1O [Vidarabine]
- Cholesterol-free [1, 8]: 1.542
- Complete ([1]; NCI-H292 cells, complete media): 1.194
- Difference [1, 9]: −0.35
- Cholesterol-free media + simvastatin (0.04 μM) [2, 19]: 0.9857
- Complete Media [2, 20]: 0.8059
- Difference [2, 12]: −0.18

Compound: C[C@@H]1O[C@@H]1P(=O)(O)O [Fosfomycin (sodium)]
- Difference [1, 21]: −0.22
- Cholesterol-free [1, 8]: 1.096
- Complete ([1]; NCI-H292 cells, complete media): 0.8782
- Cholesterol-free media + simvastatin (0.04 μM) [2, 6]: 1.163
- Complete Media [2, 5]: 1.004
- Difference [2, 12]: −0.16

Compound: C[C@@](Cc1ccc(O)c(O)c1)(NN)C(=O)O [Carbidopa]
- Difference [1, 3]: −0.16
- Cholesterol-free [1, 4]: 1.15
- Complete [1, 5]: 0.9946
- Cholesterol-free media + simvastatin (0.04 μM) [2, 10]: 1.956
- Complete Media [2, 11]: 1.221
- Difference [2, 12]: −0.74

Compound: CCN1CCC[C@H]1CNC(=O)c1cc(S(N)(=O)=O)ccc1OC [Levosulpiride]
- Difference [1, 22]: −0.54
- Cholesterol-free [1, 14]: 1.287
- Complete [1, 15]: 0.7498
- Cholesterol-free media + simvastatin (0.04 μM) [2, 6]: 0.9156
- Complete Media [2, 5]: 1.092
- Difference [2, 7]: 0.18

Compound: CC(C)NC[C@H](O)COc1ccc(CCOCC2CC2)cc1 [Levobetaxolol (hydrochloride)]
- Difference [1, 22]: −0.54
- Cholesterol-free [1, 14]: 1.517
- Complete [1, 15]: 0.977
- Cholesterol-free media + simvastatin (0.04 μM) [2, 23]: 1.004
- Complete Media [2, 24]: 0.9581
- Difference [2, 25]: −0.05

Compound: Cc1ncc(CNC(=O)N(CCCl)N=O)c(N)n1 [Nimustine (hydrochloride)]
- Cholesterol-free [1]: 1.02
- Complete [1]: 1.016
- Difference [1]: 0.00
- Cholesterol-free media + simvastatin (0.04 μM) [2]: 1.194
- Complete Media [2]: 1.026
- Difference [2]: −0.17

Compound: C#Cc1cccc(Nc2ncnc3cc(OCCOC)c(OCCOC)cc23)c1 [Erlotinib]
- Difference [1, 3]: −0.17
- Cholesterol-free [1, 4]: 0.6096
- Complete [1, 5]: 0.4429
- Cholesterol-free media + simvastatin (0.04 μM) [2, 23]: 0.5219
- Complete Media [2, 24]: 0.4599
- Difference [2, 25]: −0.06

Compound: Teprenone
- Cholesterol-free [1, 8]: 1.353
- Difference ([1]; complete vs cholesterol-free media, […]): −0.31
- Cholesterol-free media + simvastatin (0.04 μM) [2, 6]: 1.117
- Complete Media [2, 5]: 0.9777
- Difference [2, 16]: −0.14

Compound: CCCCC(CC)COC(=O)c1ccccc1O (centres unmarked) [Octisalate]
- Difference [1, 21]: −0.04
- Cholesterol-free [1, 17]: 2.188
- Complete [1, 18]: 2.15
- Cholesterol-free media + simvastatin (0.04 μM) [2, 6]: 0.992
- Complete Media [2, 5]: 0.8834
- Difference [2, 12]: −0.11

Compound: COc1c(C)c2c(c(O)c1C/C=C(\C)CCC(=O)O)C(=O)OC2 [Mycophenolic acid]
- Difference [1, 21]: −0.06
- Cholesterol-free [1, 17]: 0.346
- Complete [1, 18]: 0.2837
- Cholesterol-free media + simvastatin (0.04 μM) [2, 19]: 0.743
- Complete Media [2, 20]: 0.5199
- Difference [2, 12]: −0.22

Compound: CC(Oc1c(Cl)cccc1Cl)C1=NCCN1 (centres unmarked) [Lofexidine]
- Difference [1, 3]: −0.14
- Cholesterol-free [1, 4]: 0.8805
- Complete [1, 5]: 0.7367
- Cholesterol-free media + simvastatin (0.04 μM) [2, 10]: 1.108
- Complete Media [2, 11]: 0.8401
- Difference [2, 12]: −0.27

Compound: Disodium succinate
- Cholesterol-free [1]: 1.636
- Complete [1]: 0.8171
- Difference [1]: −0.82
- Cholesterol-free media + simvastatin (0.04 μM) [2]: 1.636
- Complete Media [2]: 1.676
- Difference [2]: 0.04

Compound: CC(C)n1c(/C=C/C(O)CC(O)CC(=O)O)c(-c2ccc(F)cc2)c2ccccc21 (centres unmarked) [Fluvastatin (sodium)]
- Difference [1, 21]: −0.22
- Cholesterol-free [1, 8]: 0.3896
- Complete ([1]; NCI-H292 cells, complete media): 0.168
- Cholesterol-free media + simvastatin (0.04 μM) [2, 6]: 0.3266
- Complete Media [2, 5]: 0.199
- Difference [2, 12]: −0.13

Compound: CO[C@@]1(NC(=O)Cc2cccs2)C(=O)N2C(C(=O)O)=C(COC(N)=O)CS[C@@H]21 [Cefoxitin (sodium)]
- Difference [1, 22]: −0.48
- Cholesterol-free [1, 14]: 1.299
- Complete [1, 15]: 0.8161
- Cholesterol-free media + simvastatin (0.04 μM) [2, 23]: 0.9202
- Complete Media [2, 24]: 0.8818
- Difference [2, 25]: −0.04

Compound: COc1ccc2c(c1)c(CC(=O)O)c(C)n2C(=O)c1ccc(Cl)cc1 [Indomethacin (sodium hydrate)]
- Cholesterol-free [1, 8]: 1.164
- Complete ([1]; NCI-H292 cells, complete media): 0.8005
- Difference [1, 9]: −0.36
- Cholesterol-free media + simvastatin (0.04 μM) [2, 23]: 0.9744
- Complete Media [2, 24]: 0.911
- Difference [2, 25]: −0.06

Compound: CS(=O)(=O)OC[C@H](O)[C@@H](O)COS(C)(=O)=O [Treosulfan]
- Difference [1, 22]: −0.50
- Cholesterol-free [1, 14]: 1.319
- Complete [1, 15]: 0.8211
- Cholesterol-free media + simvastatin (0.04 μM) [2, 19]: 1.216
- Complete Media [2, 20]: 1.032
- Difference [2, 12]: −0.18

Compound: NC(=O)c1cccc2cn(-c3ccc([C@@H]4CCCNC4)cc3)nc12 [Niraparib]
- Difference [1, 21]: −0.30
- Cholesterol-free [1, 8]: 1.29
- Complete ([1]; NCI-H292 cells, complete media): 0.9917
- Cholesterol-free media + simvastatin (0.04 μM) [2, 23]: 1.191
- Complete Media [2, 24]: 1.193
- Difference [2, 25]: 0.00

Compound: Doxylamine (succinate)
- Difference [1, 21]: −0.30
- Cholesterol-free [1, 8]: 1.101
- Complete ([1]; NCI-H292 cells, complete media): 0.8034
- Cholesterol-free media + simvastatin (0.04 μM) ([2]; NCI-H292 cells, cholesterol-free media with simvastatin 0.04 μM, cell growth value in FDA drug screen): 1.024
- Complete Media ([2]; NCI-H292 cells, complete media, cell growth value in FDA drug screen): 1.092
- Difference [2, 7]: 0.07

Compound: CC(=O)Nc1ccc(C(=O)O)cc1.CC(=O)Nc1ccc(C(=O)O)cc1.CC(=O)Nc1ccc(C(=O)O)cc1.CC(O)CN(C)C.CC(O)CN(C)C.CC(O)CN(C)C.O=c1[nH]cnc2c1ncn2[C@@H]1O[C@H](CO)[C@@H](O)[C@H]1O [Inosine pranobex]
- Difference [1, 13]: −0.24
- Cholesterol-free [1, 8]: 1.096
- Complete ([1]; NCI-H292 cells, complete media): 0.8599
- Cholesterol-free media + simvastatin (0.04 μM) [2, 19]: 1.233
- Complete Media [2, 20]: 0.9799
- Difference [2, 16]: −0.25
